Laboratory results reported in the NIST ThermoML archive (doi:10.1016/j.jct.2015.10.009).
Numbers after ± are expanded uncertainties.

What was measured:
[1] = Liquid; for vapor or sublimation pressure: Closed cell (Static) method
[2] = refractive index (Na D-line) (dimensionless); conditions: 298.15 K; 101.33 kPa; Liquid; Standard Abbe refractometry

Molecule `CCCCCC` [hexane] has a mass density ([1]; 298.15 K, 101.33 kPa, Vibrating tube method) of 655.241 ± 0.26 kg/m3 and a refractive index [2] of 1.3724 ± 0.0004.

In the case of `FC(F)F` [trifluoromethane], the “vapor or sublimation pressure” value ([1]; 267.81 K) is reported as 2176 ± 9 kPa, the “vapor or sublimation pressure” value ([1]; 272.86 K) is reported as 2497 ± 9 kPa and the “vapor or sublimation pressure” value ([1]; 277.9 K) is reported as 2881 ± 10 kPa. The “vapor or sublimation pressure” value ([1]; 282.96 K) was 3269 ± 10 kPa, the “vapor or sublimation pressure” value ([1]; 287.99 K) was 3707 ± 11 kPa and the “vapor or sublimation pressure” value ([1]; 292.02 K) was 4084 ± 11 kPa. The “vapor or sublimation pressure” value ([1]; 293.04 K) was 4180 ± 12 kPa and the “vapor or sublimation pressure” value ([1]; 297.07 K) was 4605 ± 12 kPa.

With `O=C=O` [carbon dioxide] the “vapor or sublimation pressure” value ([1]; 272.78 K) was 3476 ± 11 kPa, the “vapor or sublimation pressure” value ([1]; 277.83 K) was 3958 ± 12 kPa and the “vapor or sublimation pressure” value ([1]; 282.87 K) was 4487 ± 13 kPa. The “vapor or sublimation pressure” value ([1]; 287.92 K) was 5069 ± 13 kPa, the “vapor or sublimation pressure” value ([1]; 292.95 K) was 5705 ± 14 kPa and the “vapor or sublimation pressure” value ([1]; 297.99 K) was 6404 ± 16 kPa. For the same molecule, the “vapor or sublimation pressure” value ([1]; 303.03 K) was 7176 ± 17 kPa.
